Kd data for 13 molecules are collected here from ChEMBL document CHEMBL3991601, “The target landscape of clinical kinase drugs” (Science, 2017).

The target of experiment [1] is Serine/threonine-protein kinase B-raf (Homo sapiens, UniProt P15056).
Experiment [2] concerns the target Dual specificity tyrosine-phosphorylation-regulated kinase 1A (Homo sapiens, UniProt Q13627).
A further experiment addresses T1, Ephrin type-B receptor 4 (Homo sapiens, UniProt P54760).
T1 sequence (P54760 whole entry): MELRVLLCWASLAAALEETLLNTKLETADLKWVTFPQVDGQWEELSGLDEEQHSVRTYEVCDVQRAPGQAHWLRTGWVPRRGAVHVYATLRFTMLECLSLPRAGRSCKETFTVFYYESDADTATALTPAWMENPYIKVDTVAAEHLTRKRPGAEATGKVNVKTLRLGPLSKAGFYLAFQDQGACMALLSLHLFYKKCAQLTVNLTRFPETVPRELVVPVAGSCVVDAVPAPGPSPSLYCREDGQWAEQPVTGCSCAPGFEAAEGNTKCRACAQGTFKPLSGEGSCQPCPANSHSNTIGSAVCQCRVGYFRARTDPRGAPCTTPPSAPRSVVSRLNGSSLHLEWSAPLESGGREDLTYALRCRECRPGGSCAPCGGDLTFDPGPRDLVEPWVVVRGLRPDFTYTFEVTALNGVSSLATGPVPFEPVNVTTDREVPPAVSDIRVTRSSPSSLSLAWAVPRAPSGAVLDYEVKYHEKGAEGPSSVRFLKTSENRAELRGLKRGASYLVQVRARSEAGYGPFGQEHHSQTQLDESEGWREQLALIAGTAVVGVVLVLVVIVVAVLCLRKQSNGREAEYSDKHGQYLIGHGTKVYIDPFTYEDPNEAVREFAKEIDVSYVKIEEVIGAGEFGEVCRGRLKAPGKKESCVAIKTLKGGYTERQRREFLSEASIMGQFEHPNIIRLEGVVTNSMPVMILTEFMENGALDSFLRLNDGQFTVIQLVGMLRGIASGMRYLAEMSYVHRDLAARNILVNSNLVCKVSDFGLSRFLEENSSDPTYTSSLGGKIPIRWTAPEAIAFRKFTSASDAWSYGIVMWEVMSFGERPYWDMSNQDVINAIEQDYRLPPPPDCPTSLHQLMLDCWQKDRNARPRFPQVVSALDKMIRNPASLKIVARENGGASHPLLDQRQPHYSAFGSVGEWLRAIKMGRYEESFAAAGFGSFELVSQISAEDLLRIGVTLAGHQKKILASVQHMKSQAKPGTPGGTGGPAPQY

The target in experiment [3] is T2, Ribosyldihydronicotinamide dehydrogenase [quinone] (Homo sapiens, UniProt P16083).
T2 sequence (P16083 whole entry): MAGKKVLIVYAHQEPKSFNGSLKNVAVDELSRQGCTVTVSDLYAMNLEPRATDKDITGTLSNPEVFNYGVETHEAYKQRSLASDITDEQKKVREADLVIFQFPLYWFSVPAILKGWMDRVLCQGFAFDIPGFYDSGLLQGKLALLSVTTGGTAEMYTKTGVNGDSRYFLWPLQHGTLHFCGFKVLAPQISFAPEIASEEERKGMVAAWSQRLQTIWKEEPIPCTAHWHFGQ

Experiment [4] deals with T3, Serine/threonine-protein kinase PLK4 (Homo sapiens, UniProt O00444).
T3 sequence (O00444 whole entry): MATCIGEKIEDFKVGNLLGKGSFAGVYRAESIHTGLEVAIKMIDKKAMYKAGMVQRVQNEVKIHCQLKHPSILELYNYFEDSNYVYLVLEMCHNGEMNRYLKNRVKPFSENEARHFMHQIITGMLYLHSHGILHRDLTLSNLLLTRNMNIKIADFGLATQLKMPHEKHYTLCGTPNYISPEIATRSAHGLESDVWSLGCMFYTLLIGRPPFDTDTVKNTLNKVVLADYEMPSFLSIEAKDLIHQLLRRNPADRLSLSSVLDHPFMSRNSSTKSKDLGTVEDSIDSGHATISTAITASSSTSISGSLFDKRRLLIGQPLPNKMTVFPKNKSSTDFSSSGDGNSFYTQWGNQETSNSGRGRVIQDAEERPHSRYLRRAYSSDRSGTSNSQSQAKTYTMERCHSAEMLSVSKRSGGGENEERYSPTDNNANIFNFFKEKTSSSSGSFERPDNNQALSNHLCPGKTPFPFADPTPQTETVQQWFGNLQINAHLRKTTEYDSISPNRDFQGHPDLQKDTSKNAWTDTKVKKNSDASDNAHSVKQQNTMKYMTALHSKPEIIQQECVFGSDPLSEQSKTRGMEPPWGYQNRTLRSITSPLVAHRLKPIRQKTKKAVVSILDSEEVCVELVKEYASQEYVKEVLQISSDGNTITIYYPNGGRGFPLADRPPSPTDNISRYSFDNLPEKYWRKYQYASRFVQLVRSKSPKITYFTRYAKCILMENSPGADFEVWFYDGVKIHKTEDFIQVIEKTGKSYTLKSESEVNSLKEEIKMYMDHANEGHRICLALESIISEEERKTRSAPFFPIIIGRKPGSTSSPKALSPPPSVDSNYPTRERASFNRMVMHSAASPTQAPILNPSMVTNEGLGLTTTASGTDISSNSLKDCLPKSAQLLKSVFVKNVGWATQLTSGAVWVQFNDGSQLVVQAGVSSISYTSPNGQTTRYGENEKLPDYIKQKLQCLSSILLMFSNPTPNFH

Experiment [5] addresses Ribosomal protein S6 kinase alpha-1 (Homo sapiens, UniProt Q15418).
A further experiment concerns the target T4, TGF-beta receptor type-1 (Homo sapiens, UniProt P36897).
T4 sequence (P36897 whole entry): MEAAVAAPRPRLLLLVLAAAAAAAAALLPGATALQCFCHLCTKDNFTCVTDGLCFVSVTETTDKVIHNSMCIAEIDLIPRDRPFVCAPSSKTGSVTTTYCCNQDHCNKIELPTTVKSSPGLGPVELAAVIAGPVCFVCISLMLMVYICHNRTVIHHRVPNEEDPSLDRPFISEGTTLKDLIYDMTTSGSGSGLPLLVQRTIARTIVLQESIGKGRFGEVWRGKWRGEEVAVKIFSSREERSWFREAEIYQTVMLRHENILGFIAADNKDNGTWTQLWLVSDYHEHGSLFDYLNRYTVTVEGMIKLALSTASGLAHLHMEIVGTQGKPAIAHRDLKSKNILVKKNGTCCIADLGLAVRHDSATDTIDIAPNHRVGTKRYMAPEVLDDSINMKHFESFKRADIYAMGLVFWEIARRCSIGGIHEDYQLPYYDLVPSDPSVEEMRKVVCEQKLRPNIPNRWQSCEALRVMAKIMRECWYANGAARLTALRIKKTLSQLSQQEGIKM

Activity calls are given as the source filed them. Rule as the data show it: actives have a measured Kd and inactives only a lower limit.
Also: in the data inactive means no Kd found up to 30 µM.

Sequence of Serine/threonine-protein kinase B-raf (P15056 whole entry): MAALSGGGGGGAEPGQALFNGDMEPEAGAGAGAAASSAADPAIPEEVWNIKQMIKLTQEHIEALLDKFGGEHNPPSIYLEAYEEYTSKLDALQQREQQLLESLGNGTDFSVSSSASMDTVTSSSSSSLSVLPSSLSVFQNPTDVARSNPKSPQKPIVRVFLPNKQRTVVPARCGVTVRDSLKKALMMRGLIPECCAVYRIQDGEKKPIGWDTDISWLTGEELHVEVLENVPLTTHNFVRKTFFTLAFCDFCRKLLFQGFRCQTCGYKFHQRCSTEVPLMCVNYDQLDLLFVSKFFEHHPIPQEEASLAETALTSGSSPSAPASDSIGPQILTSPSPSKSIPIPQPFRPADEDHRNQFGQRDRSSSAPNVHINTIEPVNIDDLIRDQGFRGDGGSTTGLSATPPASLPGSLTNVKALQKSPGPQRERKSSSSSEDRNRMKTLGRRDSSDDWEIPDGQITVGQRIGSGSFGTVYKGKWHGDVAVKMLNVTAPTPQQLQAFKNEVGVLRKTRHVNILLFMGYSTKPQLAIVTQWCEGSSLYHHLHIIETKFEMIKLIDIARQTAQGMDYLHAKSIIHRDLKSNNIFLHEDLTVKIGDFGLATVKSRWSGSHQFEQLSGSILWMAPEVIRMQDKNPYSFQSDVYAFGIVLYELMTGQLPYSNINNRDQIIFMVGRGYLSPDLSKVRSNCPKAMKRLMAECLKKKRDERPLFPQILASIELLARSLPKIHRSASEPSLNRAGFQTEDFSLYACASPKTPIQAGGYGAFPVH
Sequence of Ribosomal protein S6 kinase alpha-1 (Q15418 whole entry): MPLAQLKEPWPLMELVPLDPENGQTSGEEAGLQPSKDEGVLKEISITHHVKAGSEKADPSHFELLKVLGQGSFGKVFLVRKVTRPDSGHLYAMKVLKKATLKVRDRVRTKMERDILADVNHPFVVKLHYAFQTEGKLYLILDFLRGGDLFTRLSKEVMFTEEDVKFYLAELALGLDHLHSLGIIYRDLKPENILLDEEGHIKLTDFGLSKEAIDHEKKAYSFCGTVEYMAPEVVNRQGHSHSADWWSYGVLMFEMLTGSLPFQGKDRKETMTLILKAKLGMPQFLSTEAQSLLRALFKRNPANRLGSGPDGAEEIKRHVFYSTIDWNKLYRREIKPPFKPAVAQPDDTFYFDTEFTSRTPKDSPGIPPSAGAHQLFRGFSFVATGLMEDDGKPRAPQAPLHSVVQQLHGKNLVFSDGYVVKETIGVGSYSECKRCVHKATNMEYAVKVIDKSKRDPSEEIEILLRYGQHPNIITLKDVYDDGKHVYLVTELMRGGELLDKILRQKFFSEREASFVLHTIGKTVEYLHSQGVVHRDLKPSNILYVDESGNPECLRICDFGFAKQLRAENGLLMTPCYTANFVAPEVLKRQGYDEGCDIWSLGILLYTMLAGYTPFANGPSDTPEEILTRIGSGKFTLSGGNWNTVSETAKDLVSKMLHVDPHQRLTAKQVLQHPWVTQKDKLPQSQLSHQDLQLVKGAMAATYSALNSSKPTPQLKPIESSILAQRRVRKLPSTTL

In general, Kd refers to the equilibrium constant for the complex coming apart. In the case of `Cn1cc(-c2ccc(F)c(C(F)(F)F)c2)nc1C1CCN(c2ncnc3[nH]ncc23)CC1` [LY-2584702], the Kd (in experiment [1]; in experiment [2]; on Ephrin type-B receptor 4; in experiment [3]; in experiment [4]; in experiment [5]) was > 30 µM (inactive) each time. For the same molecule, on TGF-beta receptor type-1, the Kd was > 30 µM (inactive).

Consider `COc1cc(OC)c(/C=C/S(=O)(=O)Cc2ccc(OC)c(NCC(=O)O)c2)c(OC)c1` [RIGOSERTIB], for which the Kd in experiment [1] was > 30 µM (inactive); in experiment [2], > 30 µM (inactive); on Ephrin type-B receptor 4, > 30 µM (inactive); in experiment [3], 15.2 µM (active); in experiment [4], > 30 µM (inactive); in experiment [5], > 30 µM (inactive). For the same molecule, the Kd on TGF-beta receptor type-1 is > 30 µM (inactive).

For the molecule `CCn1c(=O)c(-c2cc[nH]n2)cc2c(C)nc(N)nc21` [VOXTALISIB], the Kd (in experiment [1]; in experiment [2]; at Ephrin type-B receptor 4; in experiment [3]; in experiment [4]; in experiment [5]) was > 30 µM (inactive) in each case. Also, the Kd on TGF-beta receptor type-1 was > 30 µM (inactive).

Consider `CO[C@H]1C[C@@H]2CC[C@@H](C)[C@@](O)(O2)C(=O)C(=O)N2CCCC[C@H]2C(=O)O[C@H]([C@H](C)C[C@@H]2CC[C@@H](OCCO)[C@H](OC)C2)CC(=O)[C@H](C)/C=C(\C)[C@@H](O)[C@@H](OC)C(=O)[C@H](C)C[C@H](C)/C=C/C=C/C=C/1C` [EVEROLIMUS], for which the Kd (in experiment [1]; in experiment [2]; at Ephrin type-B receptor 4; in experiment [3]; in experiment [4]; in experiment [5]) was > 30 µM (inactive) each time. In addition, the Kd at TGF-beta receptor type-1 was > 30 µM (inactive).

As for `O=C(Nc1ccc(-c2ccnc(Nc3ccc(N4CCOCC4)cc3)n2)cc1)C1CCCN1` (stereo unspecified) [XL-019], the Kd in experiment [1] is > 30 µM (inactive); in experiment [2] it was > 30 µM (inactive); at Ephrin type-B receptor 4, > 30 µM (inactive); in experiment [3] it was > 30 µM (inactive); in experiment [4] it was 0.908 µM (active); in experiment [5], > 30 µM (inactive). Besides, the Kd at TGF-beta receptor type-1 was > 30 µM (inactive).

As for `Cn1ncc(Cl)c1-c1cc(C(=O)N[C@H](CN)Cc2cccc(F)c2)sc1Cl` [AFURESERTIB], the Kd (in experiment [1]; in experiment [2]; on Ephrin type-B receptor 4; in experiment [3]; in experiment [4]; in experiment [5]) was > 30 µM (inactive) in each case. Further, the Kd at TGF-beta receptor type-1 was > 30 µM (inactive).

As for `CNC(=O)CN1CCC(Oc2cc3c(Nc4cccc(Cl)c4F)ncnc3cc2OC)CC1` [SAPITINIB], the Kd in experiment [1] is > 30 µM (inactive); in experiment [2], > 30 µM (inactive); on Ephrin type-B receptor 4 it was 0.556 µM (active); in experiment [3] it was > 30 µM (inactive); in experiment [4], > 30 µM (inactive); in experiment [5], > 30 µM (inactive). Also, on TGF-beta receptor type-1, the Kd was > 30 µM (inactive).

For `CC(=O)Nc1cccc(-n2c(=O)n(C3CC3)c(=O)c3c(Nc4ccc(I)cc4F)n(C)c(=O)c(C)c32)c1` [TRAMETINIB], the Kd (in experiment [1]; in experiment [2]; at Ephrin type-B receptor 4; in experiment [3]; in experiment [4]; in experiment [5]) was > 30 µM (inactive) in each case. Also, the Kd on TGF-beta receptor type-1 was > 30 µM (inactive).

`CNC(=O)c1ccc(-c2cnc3ncc(Cc4ccc5ncccc5c4)n3n2)cc1F` [CAPMATINIB]: the Kd (in experiment [1]; in experiment [2]; on Ephrin type-B receptor 4; in experiment [3]; in experiment [4]; in experiment [5]) was > 30 µM (inactive) in each case. In addition, the Kd on TGF-beta receptor type-1 was > 30 µM (inactive).

Take `COC(=O)[C@@]1(O)C[C@H]2O[C@]1(C)n1c3ccccc3c3c4c(c5c6ccccc6n2c5c31)C(=O)NC4` [K-252A]: the Kd in experiment [1] is > 30 µM (inactive); in experiment [2], 4.85 µM (active); at Ephrin type-B receptor 4, > 30 µM (inactive); in experiment [3], 4.03 µM (active); in experiment [4], 0.073 µM (active); in experiment [5] it was 2.99 µM (active). Also, the Kd on TGF-beta receptor type-1 is 2.18 µM (active).

With `CCS(=O)(=O)N1CC(CC#N)(n2cc(-c3ncnc4[nH]ccc34)cn2)C1` [BARICITINIB], the Kd (in experiment [1]; in experiment [2]; at Ephrin type-B receptor 4; in experiment [3]; in experiment [4]; in experiment [5]) was > 30 µM (inactive) throughout. For the same molecule, on TGF-beta receptor type-1, the Kd was > 30 µM (inactive).

Regarding `CNS(=O)(=O)Nc1nccc(Cc2c(C)c3ccc(Oc4ncccn4)cc3oc2=O)c1F` [AVUTOMETINIB], the Kd is 0.007 µM in experiment [1]; > 30 µM (inactive) in experiment [2]; > 30 µM (inactive) at Ephrin type-B receptor 4; > 30 µM (inactive) in experiment [3]; > 30 µM (inactive) in experiment [4]; > 30 µM (inactive) in experiment [5]. In addition, the Kd at TGF-beta receptor type-1 was > 30 µM (inactive).

`COc1ccc(-c2ccc3c(N4CCOC[C@@H]4C)nc(N4CCOC[C@@H]4C)nc3n2)cc1CO` [AZD-8055]: the Kd (in experiment [1]; in experiment [2]; on Ephrin type-B receptor 4; in experiment [3]; in experiment [4]; in experiment [5]) was > 30 µM (inactive) throughout. Also, the Kd on TGF-beta receptor type-1 is > 30 µM (inactive).
